Data on 16 molecules can be found in patent publication US12729186B2, “Prodrugs for sustained releasing therapeutic agents and uses thereof” (LIANGJIANG MEDICINE CO., LTD., priority 2020, dated 2026).

This data set in a line: Drug release assay (hydrolysis rate test in pH 7.4 / pH 2.0 buffer, HPLC). Type of data set: physicochemical. The conditions noted are these: for Hydrolysis constant Kh pH 2.0 / Hydrolysis constant Kh pH 7.4: Kh=-ln[100%-Release rate (%)]/t; for Release rate (%) pH 2.0 (6 h): pH 2.0 buffer solution; for Release rate (%) pH 2.0 (6 h) / Release rate (%) pH 7.4 (0.5 h) / Release rate (%) pH 7.4 (6 h): 37° C., 200 rpm, residual content relative to 0 h by HPLC; for Release rate (%) pH 7.4 (0.5 h) / Release rate (%) pH 7.4 (6 h): pH 7.4 buffer solution. As for the experimental part: Preparation of pH2.0 Buffer Solution
Preparation of pH7.4 Buffer Solution
Method of Hydrolysis Rate Test
The compounds were dissolved in pH7.4/pH2.0 buffer solution, placed in a constant temperature shaker at 37° C. and 200 rpm, and sampled at 0 h, 0.5 h and 6 h respectively. The residual contents of the compounds relative to 0 h were tested at each time point.
The release rates (%) were calculated using the following equation: Release rate (%)=[A(0h)−A(xh)]/A(0h)×100%, (x=0, 0.5, 6), A(xh) is the peak area of compounds tested by HPLC at the indicated time point.
The hydrolysis constants (Kh) were calculated using the following equation: Hydrolysis constant Kh=−ln[100%−Release rate (%)]/t Results

`CCCCN(CCCC)c1ccc(N2CCC(CCOC(=O)OCn3cc(F)c(=O)[nH]c3=O)CC2)cc1` [Example 1, 2-(1-(4-(Dibutylamino)phenyl)piperidin-4-yl)ethyl ((5-fluoro-2,4-dioxo-3,4-dihydropyrimidin-1(2H)-yl)methyl) carbonate]: the “Hydrolysis constant Kh pH 2.0” value is given as below 0.001, the “Release rate (%) pH 2.0 (6 h)” value turned out to be 0%, the “Hydrolysis constant Kh pH 7.4” value was determined as 0.111 and the “Release rate (%) pH 7.4 (0.5 h)” value was determined as 5.4%. Further, the “Release rate (%) pH 7.4 (6 h)” value is 64%.

Turning to `CCCN(CCC)c1ccc(-c2ccc(OC(=O)OCn3cc(F)c(=O)[nH]c3=O)cc2)cc1` [Example 2, 4′-(Dipropylamino)-[1,1′-biphenyl]-4-yl ((5-fluoro-2,4-dioxo-3,4-dihydropyrimidin-1(2H)-yl)methyl) carbonate], the “Hydrolysis constant Kh pH 2.0” value is listed as 0.080, the “Release rate (%) pH 2.0 (6 h)” value worked out at 38%, the “Hydrolysis constant Kh pH 7.4” value was 2.375 and the “Release rate (%) pH 7.4 (0.5 h)” value came to 69.5%. Also, the “Release rate (%) pH 7.4 (6 h)” value is on record as 89%.

Consider `CCCCCN(CCCCC)c1ccc(OC(=O)OCn2cc(F)c(=O)[nH]c2=O)cc1` [Example 3, 4-(Dipentylamino)phenyl ((5-fluoro-2,4-dioxo-3,4-dihydropyrimidin-1(2H)-yl)methyl) carbonate], for which the “Hydrolysis constant Kh pH 2.0” value was found to be 0.153, the “Release rate (%) pH 2.0 (6 h)” value was found to be 60%, the “Hydrolysis constant Kh pH 7.4” value came out at 1.873 and the “Release rate (%) pH 7.4 (0.5 h)” value came to 60.8%. Besides, the “Release rate (%) pH 7.4 (6 h)” value amounted to 100%.

Consider `Cc1cc(C)cc(N2CCC(c3ccc(OC(=O)OCn4cc(F)c(=O)[nH]c4=O)cc3)CC2)c1` [Example 4, 4-(1-(3,5-Dimethylphenyl)piperidin-4-yl)phenyl ((5-fluoro-2,4-dioxo-3,4-dihydropyrimidin-1(2H)-yl)methyl) carbonate], for which the “Hydrolysis constant Kh pH 2.0” value came to 0.039, the “Release rate (%) pH 2.0 (6 h)” value is recorded as 21%, the “Hydrolysis constant Kh pH 7.4” value turned out to be 3.509 and the “Release rate (%) pH 7.4 (0.5 h)” value worked out at 82.7%. In addition, the “Release rate (%) pH 7.4 (6 h)” value was 98%.

For `CCCc1ccc(N2CCc3cc(OC(=O)OCn4cc(F)c(=O)[nH]c4=O)ccc3C2)cc1` [Example 5, (5-Fluoro-2,4-dioxo-3,4-dihydropyrimidin-1(2H)-yl)methyl (2-(4-propylphenyl)-1,2,3,4-tetrahydroisoquinolin-6-yl) carbonate], the “Hydrolysis constant Kh pH 2.0” value was determined as 0.137, the “Release rate (%) pH 2.0 (6 h)” value is given as 56%, the “Hydrolysis constant Kh pH 7.4” value is given as 5.838 and the “Release rate (%) pH 7.4 (0.5 h)” value was determined as 94.6%. Besides, the “Release rate (%) pH 7.4 (6 h)” value came to 95%.

In the case of `CCCc1ccc(N2CCC(Cc3ccc(OC(=O)OCn4cc(F)c(=O)[nH]c4=O)cc3)CC2)cc1` [Example 6, (5-Fluoro-2,4-dioxo-3,4-dihydropyrimidin-1(2H)-yl)methyl (4-((1-(4-propylphenyl)piperidin-4-yl)methyl)phenyl) carbonate], the “Hydrolysis constant Kh pH 2.0” value is 0.033, the “Release rate (%) pH 2.0 (6 h)” value was found to be 18%, the “Hydrolysis constant Kh pH 7.4” value was 3.521 and the “Release rate (%) pH 7.4 (0.5 h)” value is 82.8%. In addition, the “Release rate (%) pH 7.4 (6 h)” value was found to be 75%.

Turning to `O=C(OCn1cc(F)c(=O)[nH]c1=O)Oc1ccc(C2CCN(CC(c3ccccc3)c3ccccc3)CC2)cc1` [Example 7, 4-(1-(2,2-Diphenylethyl)piperidin-4-yl)phenyl ((5-fluoro-2,4-dioxo-3,4-dihydropyrimidin-1(2H)-yl)methyl) carbonate], the “Hydrolysis constant Kh pH 2.0” value is recorded as 0.029, the “Release rate (%) pH 2.0 (6 h)” value came to 16%, the “Hydrolysis constant Kh pH 7.4” value is reported as 9.924 and the “Release rate (%) pH 7.4 (0.5 h)” value was found to be 99.3%. Further, the “Release rate (%) pH 7.4 (6 h)” value was determined as 92%.

Regarding `O=C(OCn1cc(F)c(=O)[nH]c1=O)Oc1ccc(C2CCN(CC34CC5CC(CC(C5)C3)C4)CC2)cc1` [Example 8, 4-(1-(Adamantan-1-ylmethyl)piperidin-4-yl)phenyl ((5-fluoro-2,4-dioxo-3,4-dihydropyrimidin-1(2H)-yl)methyl) carbonate], the “Hydrolysis constant Kh pH 2.0” value was determined as 0.041, the “Release rate (%) pH 2.0 (6 h)” value came out at 22%, the “Hydrolysis constant Kh pH 7.4” value is 11.043 and the “Release rate (%) pH 7.4 (0.5 h)” value came to 99.6%. The “Release rate (%) pH 7.4 (6 h)” value is 99%.

With `O=C(OCn1cc(F)c(=O)[nH]c1=O)Oc1ccc(CC2CCN(C(c3ccccc3)c3ccccc3)CC2)cc1` [Example 9, 4-((1-Benzhydrylpiperidin-4-yl)methyl)phenyl ((5-fluoro-2,4-dioxo-3,4-dihydropyrimidin-1(2H)-yl)methyl) carbonate], the “Hydrolysis constant Kh pH 2.0” value worked out at 0.027, the “Release rate (%) pH 2.0 (6 h)” value worked out at 15%, the “Hydrolysis constant Kh pH 7.4” value came to 4.508 and the “Release rate (%) pH 7.4 (0.5 h)” value came to 89.5%. For the same molecule, the “Release rate (%) pH 7.4 (6 h)” value amounted to 90%.

As to `CCCCC1CCN(c2ccc(CCOC(=O)n3cc(F)c(=O)[nH]c3=O)cc2)CC1` [Example 10, 4-(4-Butylpiperidin-1-yl)phenethyl 5-fluoro-2,4-dioxo-3,4-dihydropyrimidine-1(2H)-carboxylate], the “Hydrolysis constant Kh pH 2.0” value was 0.077, the “Release rate (%) pH 2.0 (6 h)” value came to 37%, the “Hydrolysis constant Kh pH 7.4” value is on record as 0.256 and the “Release rate (%) pH 7.4 (0.5 h)” value was 12.0%. For the same molecule, the “Release rate (%) pH 7.4 (6 h)” value was 54%.

As for `CCCCN(CCCC)c1ccc(N2CCC(CCOC(=O)n3cc(F)c(=O)[nH]c3=O)CC2)cc1` [Example 11, 2-(1-(4-(Dibutylamino)phenyl)piperidin-4-yl)ethyl 5-fluoro-2,4-dioxo-3,4-dihydropyrimidine-1(2H)-carboxylate], the “Hydrolysis constant Kh pH 2.0” value is given as 0.067, the “Release rate (%) pH 2.0 (6 h)” value amounted to 33%, the “Hydrolysis constant Kh pH 7.4” value is given as 0.117 and the “Release rate (%) pH 7.4 (0.5 h)” value was found to be 5.7%. Moreover, the “Release rate (%) pH 7.4 (6 h)” value is reported as 83%.

Take `CC[C@@]1(O)C(=O)OCc2c1cc1n(c2=O)Cc2cc3cc(OC(=O)CC4CCN(CC(c5ccccc5)c5ccccc5)CC4)ccc3nc2-1` [Example 13, (S)-4-ethyl-4-hydroxy-3,14-dioxo-3,4,12,14-tetrahydro-1H-pyrano[3′,4′:6,7]indolizino[1,2-b]quinolin-9-yl 2-(1-(2,2-diphenylethyl)piperidin-4-yl)acetate]: the “Hydrolysis constant Kh pH 2.0” value is given as below 0.001, the “Release rate (%) pH 2.0 (6 h)” value is 0.5%, the “Hydrolysis constant Kh pH 7.4” value stood at 0.042 and the “Release rate (%) pH 7.4 (0.5 h)” value is 2.1%. Also, the “Release rate (%) pH 7.4 (6 h)” value is listed as 23.3%.

Turning to `CCc1c2c(nc3ccc(OC(=O)[C@@H]4CCCN4C(c4ccccc4)c4ccccc4)cc13)-c1cc3c(c(=O)n1C2)COC(=O)[C@]3(O)CC` [Example 14, (S)-4,11-diethyl-4-hydroxy-3,14-dioxo-3,4,12,14-tetrahydro-1H-pyrano[3′,4′:6,7]indolizino[1,2-b]quinolin-9-yl benzhydrylprolinate], the “Hydrolysis constant Kh pH 2.0” value came to 0.015, the “Release rate (%) pH 2.0 (6 h)” value turned out to be 8.4%, the “Hydrolysis constant Kh pH 7.4” value came to 3.876 and the “Release rate (%) pH 7.4 (0.5 h)” value is recorded as 85.6%. Moreover, the “Release rate (%) pH 7.4 (6 h)” value was found to be 84.4%.

For `CCc1c2c(nc3ccc(OC(=O)NCC4CCCN4C(c4ccccc4)c4ccccc4)cc13)-c1cc3c(c(=O)n1C2)COC(=O)[C@]3(O)CC` (stereo partly drawn) [Example 16, (S)-4,11-diethyl-4-hydroxy-3,14-dioxo-3,4,12,14-tetrahydro-1H-pyrano[3′,4′:6,7]indolizino[1,2-b]quinolin-9-yl ((1-benzhydrylpyrrolidin-2-yl)methyl)carbamate], the “Hydrolysis constant Kh pH 2.0” value is on record as below 0.001, the “Release rate (%) pH 2.0 (6 h)” value was 0.4%, the “Hydrolysis constant Kh pH 7.4” value was 6.540 and the “Release rate (%) pH 7.4 (0.5 h)” value is reported as 96.2%. In addition, the “Release rate (%) pH 7.4 (6 h)” value is recorded as 100%.

Take `CCCCN1CCC(c2ccc(OC(=O)Oc3ccc4nc5c(c(CC)c4c3)Cn3c-5cc4c(c3=O)COC(=O)[C@]4(O)CC)cc2)CC1` [Example 17, (S)-4-(1-butylpiperidin-4-yl)phenyl (4,11-diethyl-4-hydroxy-3,14-dioxo-3,4,12,14-tetrahydro-1H-pyrano[3′,4′:6,7]indolizino[1,2-b]quinolin-9-yl) carbonate]: the “Hydrolysis constant Kh pH 2.0” value is on record as 0.095, the “Release rate (%) pH 2.0 (6 h)” value was 43.6%, the “Hydrolysis constant Kh pH 7.4” value stood at 0.096 and the “Release rate (%) pH 7.4 (0.5 h)” value was found to be 4.7%. The “Release rate (%) pH 7.4 (6 h)” value was determined as 57.4%.

`CCCCCCCN1CCC(COC(=O)Oc2ccc3nc4c(c(CC)c3c2)Cn2c-4cc3c(c2=O)COC(=O)[C@]3(O)CC)CC1` [Example 18, (S)-4,11-diethyl-4-hydroxy-3,14-dioxo-3,4,12,14-tetrahydro-1H-pyrano[3′,4′:6,7]indolizino[1,2-b]quinolin-9-yl ((1-heptylpiperidin-4-yl)methyl) carbonate]: the “Hydrolysis constant Kh pH 2.0” value is listed as below 0.001, the “Release rate (%) pH 2.0 (6 h)” value worked out at 0.3%, the “Hydrolysis constant Kh pH 7.4” value stood at 0.184 and the “Release rate (%) pH 7.4 (0.5 h)” value was 8.8%. The “Release rate (%) pH 7.4 (6 h)” value is given as 11.9%.
